In data set [1] the test system is rat CRF2R α receptor. Kind of data set: cAMP agonism at rat CRF2R α receptor in A7R5 rat aortic smooth muscle cells (Example 8). Format: cell-based. As to conditions: cAMP HTRF, A7R5 rat aortic smooth muscle cell line, 0% HSA. A digest of the protocol: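 Potency (EC50) is the concentration reaching half-maximal activation, with responses scaled so that 1000 nM urocortin 2 equals 100%. Intracellular cAMP was quantified by homogeneous time-resolved fluorescence at 665/620 nm, 1 h after lysis-buffer reagents. Compound stimulation lasted 30 min at room temperature on 2000 IBMX-treated (2 mM) cells per well in HEPES-buffered HBSS.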
In general terms: TR-FRET usually uses a lanthanide donor and a delayed reading to cut background.

Data set [2] in a line: Physical stability, dynamic light scattering assay (Example 15). Format: physicochemical. The note with it: Buffer A (100 mM acetate, pH 4.5). On the procedure: The physical stability of the compounds was also assessed using a dynamic light scattering assay.
In the present study, the physical stability of test compounds was assessed by determining the apparent hydrodynamic radius (Rh), the scattering intensity (I) and mass contribution (M) after synthesis (0 weeks) and after storage for 4 weeks at 40° C.
For each solution of test compound, the hydrodynamic radius Rh and the diffusion constant D (related via the Stokes-Einstein equation) were determined as an average over triplicates. Both parameters were determined at different compound concentrations (e.g., Rh1 and D1: 1 mg/ml and Rh5 and D5: 5 mg/ml, Rh10 and D10: 10 mg/mL) in the same buffer system. The difference of these parameters between low and high peptide concentration is a surrogate for the DLS interaction parameter kD. […] In addition, the hydrodynamic radius Rh and the corresponding Scattering Intensity (%) were determined as an average over duplicates. The target concentration was 300 μM. Therefore, solutions from solid samples were prepared in a buffer system with a concentration of 300 μM compound based on the previously determined % purity.
DLS measurements were performed on a DynaPro Plate Reader I (Wyatt Technology, Santa Barbara, CA, US) with an 837 nm laser light source at a scattering angle of 150°. The data were collected and processed with Dynamics V 7.8.1.3 or 7.8.2.18 software provided by Wyatt Technology.
Hydrodynamic radii were determined with non-negatively constrained least squares (NNLS) methods using DYNALS algorithms with regularization fit. […] Samples were tempered over 1 hour at +25° C. and visually inspected before analysis.
Samples were mixed with the aid of a pipet tip. Measurements were performed in 5 replicates. […] The plate was centrifuged for 2 minutes at 600 rcf. After removing the sealing, the samples were measured at +25° C.

Data set [3] can be described thus: Solubility in buffer systems by UPLC-UV (Example 13). Format: physicochemical. In a few lines:
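Quantitation used UV peak area from UPLC of the 1:10-diluted supernatant, set against a reference-compound standard curve with extinction coefficients adjusted for amino acid sequence.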

In data set [4] the target is T1, human CRF2α receptor (Homo sapiens, UniProt Q13324).
T1 construct: expressed in transfected cells; host or cells: TeloHEAC
T1 sequence (Q13324 1-411): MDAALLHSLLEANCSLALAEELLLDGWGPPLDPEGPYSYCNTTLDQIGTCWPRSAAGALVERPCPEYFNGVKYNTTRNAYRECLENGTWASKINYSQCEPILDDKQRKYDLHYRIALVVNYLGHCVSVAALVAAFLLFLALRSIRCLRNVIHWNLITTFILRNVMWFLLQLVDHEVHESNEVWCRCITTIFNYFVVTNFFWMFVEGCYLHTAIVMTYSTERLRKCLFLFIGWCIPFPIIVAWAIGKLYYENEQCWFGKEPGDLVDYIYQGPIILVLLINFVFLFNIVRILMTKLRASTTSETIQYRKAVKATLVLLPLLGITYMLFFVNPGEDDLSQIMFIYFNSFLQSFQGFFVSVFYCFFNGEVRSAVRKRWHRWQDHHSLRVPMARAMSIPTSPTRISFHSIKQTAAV
Kind of data set: cAMP agonism at human CRF2 α receptor in TeloHEAC cells (Example 7). Format: cell-based. The note with it: cAMP HTRF, TeloHEAC cells stably expressing human CRF2 α. A digest of the protocol: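 HTRF ratio 665/620 nm, read 1 h after lysis reagents, reports cAMP. Cells: thawed stocks, 2000/well, 30 min RT with compound in HBSS, 20 mM HEPES, 0 or 0.1% HSA, 2 mM IBMX. Activity normalised to UCN2 1000 nM = 100%; EC50 from half-maximal activation.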

Data set [5] in a line: Chemical stability, purity loss by UPLC-UV after 28 days at 40° C. vs 5° C., pH 4.5 acetate buffer (Example 12). Format: physicochemical. The note with it: 28 days 40° C. vs 5° C.; pH 4.5, 20 mM acetate buffer; 300 μM. On the procedure:
The chemical stability of the compounds was assessed by storing the compounds under various conditions and then determining the loss of purity by UPLC-UV.
Prior to measuring the chemical stability of a batch of test compound, the purity of the compound was determined through UPLC/MS. For stability testing the target concentration was 300 μM pure compound. Therefore, solutions from solid samples were prepared in a pH 4.5, 20 mM acetate buffer system with a concentration of 300 μM compound based on the previously determined % purity:
At the starting point, UPLC-UV was performed by injection of 2 μl of the undiluted sample. Aliquots were then stored for 28 days at temperatures of 5 and 40° C. […] Then 2 μl samples of the undiluted supernatant were analysed with UPLC-UV. The chemical stability was calculated by the equation: [(purity after 28 days at 5° C.)−(purity after 28 days at 40° C.)]/(purity after 28 days at 5° C.)]×100%. The purity was calculated as: [(peak area compound)/(total peak area)]×100%.

Data set [6] has as its target T2, CRF1R receptor (Homo sapiens, UniProt P34998).
T2 construct: host or cells: CHO-K1 clone 2
T2 sequence (P34998 24-415): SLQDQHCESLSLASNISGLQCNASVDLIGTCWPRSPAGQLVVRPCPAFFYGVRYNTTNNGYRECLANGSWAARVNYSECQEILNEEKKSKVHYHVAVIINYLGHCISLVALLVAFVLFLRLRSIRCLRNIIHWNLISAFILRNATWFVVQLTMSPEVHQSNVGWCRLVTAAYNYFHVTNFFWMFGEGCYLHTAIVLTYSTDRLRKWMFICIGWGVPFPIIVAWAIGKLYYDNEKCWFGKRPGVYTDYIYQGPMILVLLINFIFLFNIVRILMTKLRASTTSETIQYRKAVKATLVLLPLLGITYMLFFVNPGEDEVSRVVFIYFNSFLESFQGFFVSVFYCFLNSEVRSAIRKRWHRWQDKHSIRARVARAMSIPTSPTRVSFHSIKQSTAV
Put plainly: cAMP activity at anti-target CRF1R, CRF1R-overexpression CHO cell line (Example 9). In kind it is cell-based. As to conditions: CRF1R-overexpression CHO cell line. In a few lines:
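Using thawed CRF1R-overexpressing CHO cells at 2000 per well, compound is applied for 30 min at RT in HBSS/HEPES buffer with IBMX. Cellular cAMP content is determined via HTRF, and percent activity is calculated against 1000 nM UCN2 defined as 100%.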

The term EC50 denotes the concentration at which the effect is half-maximal. As usually defined, the solubility is the dissolved amount per volume that the medium holds. The term Emax denotes the maximal effect, on the per cent scale that the assay sets.

Converted amounts (≈) assume the structure as drawn. Like-named read-outs stand apart in the source and are kept apart here. Starred links: 1 amine or outer side, 2 acyl side, 3 side chain; linkers in the order of their positions; H or OH if unused. Non-standard residues stand in square brackets, D forms with d. Residues, ends and D or L forms follow the SMILES beside them. Groups on a side chain read outwards from the residue. *: point of attachment. C18 diacid = O=C(O)CCCCCCCCCCCCCCCCC(=O)*; γGlu = O=C(O)[C@H](CCC(=O)[*:2])N[*:1]; AEEA = NCCOCCOCC(=O)O Bounds are passed on as bounds.

Take `CC[C@H](C)[C@H](N)C(=O)N[C@H](C(=O)N[C@@H](CC(C)C)C(=O)N[C@@H](CO)C(=O)N[C@@H](CC(C)C)C(=O)N[C@@H](CC(=O)O)C(=O)N[C@@H](C(=O)N1CCC[C@H]1C(=O)N[C@H](C(=O)N[C@@H](CCCCN)C(=O)N[C@@H](CC(C)C)C(=O)N[C@@H](CCCCNC(=O)COCCOCCNC(=O)COCCOCCNC(=O)CC[C@H](NC(=O)CCCCCCCCCCCCCCCCC(=O)O)C(=O)O)C(=O)N[C@@H](CCC(N)=O)C(=O)N[C@H](C(=O)N[C@@H](CC(C)C)C(=O)N[C@@H](CC(C)C)C(=O)N[C@@H](CCCCN)C(=O)N[C@@H](CCC(N)=O)C(=O)N[C@@H](CCC(=O)O)C(=O)N[C@@H](CCCNC(=N)N)C(=O)N[C@@H](CCC(N)=O)C(=O)N[C@@H](CCCCN)C(=O)N[C@@H](CCCCN)C(=O)N[C@@H](CCC(N)=O)C(=O)N[C@@H](CCCNC(=N)N)C(=O)N[C@@H](CCC(=O)O)C(=O)N[C@@H](CCCCN)C(=O)N[C@@H](C)C(=O)N[C@@H](CCC(=O)O)C(=O)N[C@@H](CCCCN)C(=O)N[C@@H](CC(N)=O)C(=O)N[C@@H](CCCCN)C(=O)N[C@@H](CCC(N)=O)C(=O)N[C@H](C(=O)N[C@@H](CC(C)C)C(=O)N[C@@H](C)C(=O)N[C@@H](CCC(N)=O)C(=O)N[C@H](C(N)=O)C(C)C)[C@@H](C)CC)[C@@H](C)CC)[C@@H](C)CC)C(C)C)C(C)C` [compound 138] (H-IVLSLD[dV]PIKLK([AEEA-AEEA-γGlu-C18 diacid])QILLKQERQKKQREKAEKNKQILAQV-NH2; N-terminus assumed): the EC50 in data set [1] is 0.26 nM; in data set [4] (0% HSA, read-out: EC50 [nM], 0% HSA) it was 0.06 nM; in data set [4] (0.1% HSA, read-out: EC50 [nM], 0.1% HSA) it was 3.12 nM; in data set [6] (0% HSA), greater than 1000 nM. The “Apparent Rh [nm] 0 weeks” value in data set [2] (0 weeks) was 2.75 ± 0.19 nm. The “Scattering Intensity (I) [%] 0 weeks” value in data set [2] (0 weeks) was found to be 86 ± 4%. Further, the “Apparent Rh [nm] 4 weeks” value in data set [2] (4 weeks at 40° C.) was determined as 2.82 ± 0.11 nm. Further, the “Scattering Intensity (I) [%] 4 weeks” value in data set [2] (4 weeks at 40° C.) stood at 84 ± 1%. Moreover, the solubility at 1 h in data set [3] (pH 4.5, Solubility in Buffer A [mg/ml]) was greater than 8600 µg/mL; in data set [3] (pH 4.5, Solubility in Buffer B [mg/ml]), greater than 8700 µg/mL; in data set [3] (pH 7.4, Solubility in Buffer C [mg/ml]) it was 8200 µg/mL (≈ 1570 µM). For the same compound, in data set [5], the “Relative purity loss [%]” value stood at 2.85%. Also, the Emax in data set [6] (read-out: Emax (%)) was 4.38%.

These data come from patent publication US12679878B2, “CRF2 receptor agonists and their use in therapy” (SANOFI, priority 2020, dated 2026).
